Data set [1] concerns Septoria tritici (SEPTTR). Kind of data set: One day protectant test against Septoria blotch of wheat. The format is in vivo. The conditions noted are these: wheat 'Yuma' seedlings, inoculated the day after treatment. As to the method: (§1) It will be understood by those in the art that the efficacy of the compounds against the foregoing fungi establishes the general utility of the compounds as fungicides. The activity of the compounds as effective fungicides was determined by applying the compounds to plants and observing control of fungal disease. The compounds were formulated at rates of 50 ppm and 200 ppm in 10 vol. % acetone plus 90 vol. % Triton X water (deionized water 99.99 wt %+0.01 wt % Triton X100), giving a “formulated test compound.” Formulated test compounds were applied to plants using a turntable sprayer fitted with two opposing air atomization nozzles which delivered approximately 1500 L/ha of spray volume.
(§2) Again referring to Table 1, tests were carried out to determine a given exemplary compound's ability to prevent or at least limit a fungal infection as follows. All plants in the study were inoculated with spores of the fungus in this case either PUCCRT or SEPTTR) the day after treatment with the putative fungicide. Next, the plants were incubated in an environment conducive to disease development. Disease severity was evaluated 7 to 25 days later, depending on the speed of disease development. The following experiments were performed in the laboratory to determine the fungicidal efficacy of the compounds of the invention.
Measuring the Preventative Effect of Various Compounds Against Septoria Blotch of Wheat (Causal Agent Bayer Code SEPTTR).
(§3) Each pot contained 3-10 seedlings. These plants were sprayed until wet with the formulated test compound. On the following day, the leaves were inoculated with an aqueous spore suspension of Septoria tritici and the plants were kept in high humidity (one day in a dark dew chamber followed by three days in a lighted dew chamber) to permit the spores to germinate and to infect the leaf. The plants were then transferred to a greenhouse until disease developed on untreated control plants. These tests were carried out using two different levels of the compound, 50 ppm and 200 ppm, see Table 1.
(§4) Disease control was determined by visually estimating the percent disease severity in treated and untreated pots 7 to 24 days after inoculation, depending on speed of disease development. Evaluations were typically made 7 or 8 days after inoculation for PUCCRT and 18 to 22 days after inoculation for SEPTTR. Percent disease control (% DC) was calculated by: % DC=(1−% Disease severity treated/% disease severity untreated)*100.

For data set [2], the system named is Puccinia recondita tritici (PUCCRT). Kind of data set: One day protectant test against leaf rust of wheat. The format is in vivo. As to conditions: wheat 'Yuma' seedlings, inoculated the day after treatment. As to the method: as §1, §2
Measuring the Protective Effect of Various Compounds Against Leaf Rust of Wheat (Causal Agent Bayer Code PUCCRT).
Each pot contained 3-8 seedlings. These plants were sprayed until wet with the formulated test compounds. On the following day, the leaves were inoculated with an aqueous spore suspension of Puccinia recondita tritici and the plants were kept in high humidity overnight to permit the spores to germinate and to infect the leaf. The plants were then transferred to a greenhouse until disease developed on untreated control plants. These tests were carried out using two different levels of the compound, 50 ppm and 200 ppm, see Table 1.
as §4

Data set [3] concerns Septoria tritici (SEPTTR). In words: Three day curative test against Septoria blotch of wheat. The format is in vivo. The conditions noted are these: wheat 'Yuma' seedlings, treated three days after inoculation. The method, then: as §1
Measuring the Curative Effect of Various Compounds Against Septoria Blotch of Wheat (Causal Agent Bayer Code SEPTTR).
as §3, with “plants” for “plants were sprayed until wet with the formulated test compound. On the following day, the leaves”, “two” for “three”, “then removed form the dew chamber and allowed to dry. After drying, the inoculated plants were sprayed until wet with the formulated test compound. On the following day, the plants were” for “then”
as §4

The record followed here is patent US8759356B2, “Compounds and methods for controlling fungi” (Dow AgroSciences, LLC., priority 2009, dated 2014).

Broadly, the melting point is the temperature of the solid-liquid transition.

`Clc1ccc(-c2ncc(Cl)c(NC3CC3)n2)cc1` [Example 1]: the melting point was in the range of 103 to 105 °C. Besides, the “Percent Disease Control, One Day Protectant, SEPTTR” value in data set [1] (50 ppm spray) was determined as 90%. In data set [1] (200 ppm spray), the “Percent Disease Control, One Day Protectant, SEPTTR” value is recorded as 97%. Besides, the “Percent Disease Control, One Day Protectant, PUCCRT” value (“Percent Disease Control … PUCCRT” for short) in data set [2] (50 ppm spray) worked out at 93%. Moreover, the “Percent Disease Control … PUCCRT” value in data set [2] (200 ppm spray) was 97%. The “Percent Disease Control, Three Day Curative, SEPTTR” value in data set [3] (50 ppm spray) is 0%. Besides, the “Percent Disease Control, Three Day Curative, SEPTTR” value in data set [3] (200 ppm spray) is on record as 0%.

As for `Clc1ccc(-c2ncc(Cl)c(NC3CC3)n2)cc1Cl` [compound 2], the figures for the “Percent Disease Control, One Day Protectant, SEPTTR” value in data set [1] (50 ppm spray) and in data set [1] (200 ppm spray) were 0% and 35%, respectively. For the same compound, the “Percent Disease Control … PUCCRT” value in data set [2] (50 ppm spray) and in data set [2] (200 ppm spray) was 0% throughout. In addition, the “Percent Disease Control, Three Day Curative, SEPTTR” value is listed as 62% in data set [3] (50 ppm spray) and 72% in data set [3] (200 ppm spray).

For the compound `Fc1cc(Cl)ccc1-c1ncc(Cl)c(NC2CC2)n1` [compound 4], the “Percent Disease Control, One Day Protectant, SEPTTR” value in data set [1] (50 ppm spray) is listed as 38%; in data set [1] (200 ppm spray), 86%. Moreover, the “Percent Disease Control … PUCCRT” value in data set [2] (50 ppm spray) turned out to be 50%; in data set [2] (200 ppm spray) it was 99%. Also, the “Percent Disease Control, Three Day Curative, SEPTTR” value in data set [3] (50 ppm spray) amounted to 0%; in data set [3] (200 ppm spray), 18%.

For `Clc1cnc(-c2ccccc2)nc1NC1CC1` [compound 5], the “Percent Disease Control, One Day Protectant, SEPTTR” value in data set [1] (50 ppm spray) was 38%; in data set [1] (200 ppm spray) it was 90%. Further, the “Percent Disease Control … PUCCRT” value in data set [2] (50 ppm spray) and in data set [2] (200 ppm spray) was 99% throughout. Moreover, the “Percent Disease Control, Three Day Curative, SEPTTR” value in data set [3] (50 ppm spray) and in data set [3] (200 ppm spray) was 0% throughout.

For `Cc1ccc(-c2ncc(Cl)c(NC3CC3)n2)cc1` [compound 6], the “Percent Disease Control, One Day Protectant, SEPTTR” value worked out at 65% in data set [1] (50 ppm spray) and 95% in data set [1] (200 ppm spray). For the same compound, the figures for the “Percent Disease Control … PUCCRT” value in data set [2] (50 ppm spray) and in data set [2] (200 ppm spray) were 97% and 99%, respectively. For the same compound, the “Percent Disease Control, Three Day Curative, SEPTTR” value is 0% in data set [3] (50 ppm spray) and 27% in data set [3] (200 ppm spray).

With `Clc1ccc(-c2nc(NC3CC3)ncc2Cl)cc1` [compound 7], the “Percent Disease Control, One Day Protectant, SEPTTR” value is on record as 91% in data set [1] (50 ppm spray) and 61% in data set [1] (200 ppm spray). Further, the “Percent Disease Control … PUCCRT” value in data set [2] (50 ppm spray) stood at 53%; in data set [2] (200 ppm spray), 0%. For the same compound, the “Percent Disease Control, Three Day Curative, SEPTTR” value in data set [3] (50 ppm spray) and in data set [3] (200 ppm spray) was 50% throughout.
